According to ChEMBL document CHEMBL1201862, “PubChem BioAssay data set” (2004):
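Exposure lasted 48 hours, with cells grown in 96-well plates and compounds tested at five concentrations. GI50 = concentration required for 50% inhibition of growth.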 Activity calls are given as the source filed them. No stated cut-off is given here; in the data, active = GI50 up to about 1.1 µM and inactive = higher.

Legend:
Assay in all cases: growth of human tumour cells (NCI), 48 h
[1] = tested on: LOX IMVI
[2] = tested on: SN12C
[3] = tested on: SNB-75
[4] = tested on: COLO 205
[5] = tested on: RXF 393
[6] = tested on: SK-OV-3
[7] = tested on: CAKI-1
[8] = tested on: SF-268
[9] = tested on: TK-10
[10] = tested on: HT-29
[11] = tested on: 786-0
[12] = tested on: UACC-62
[13] = tested on: A498
[14] = tested on: UO-31
[15] = tested on: HOP-62
[16] = tested on: KM12
[17] = tested on: NCI-H23
[18] = tested on: OVCAR-4

Measured: GI50

CCOC(=O)c1c(-c2[nH]c(C(=O)OCc3ccccc3)c(C)c2C(=O)OCC)[nH]c(C(=O)OCc2ccccc2)c1C
inactive: [1] > 100 µM | [2] > 100 µM | [3] 29 µM | [4] > 100 µM | [5] 19.9 µM | [6] > 100 µM | [7] > 100 µM | [8] > 100 µM | [9] > 100 µM | [10] > 100 µM | [11] 92 µM | [12] > 100 µM | [13] > 100 µM | [14] > 100 µM | [15] > 100 µM

CC(C)C1CC[C@@H](C)C[C@@]1(O)CC(N)=O (stereo partly drawn)
inactive: [2] > 100 µM | [3] 66.2 µM | [4] > 100 µM | [16] > 100 µM | [6] > 100 µM | [7] > 100 µM | [17] > 100 µM | [9] > 100 µM | [10] > 100 µM | [18] > 100 µM | [11] > 100 µM | [12] > 100 µM | [14] > 100 µM

CC1=CC(=O)N2C(OC[C@@H]2c2ccccc2)O1 (stereo partly drawn)
inactive: [2] > 100 µM | [3] > 100 µM | [4] > 100 µM | [16] > 100 µM | [5] > 100 µM | [6] > 100 µM | [7] > 100 µM | [17] > 100 µM | [8] > 100 µM | [9] > 100 µM | [10] > 100 µM | [18] > 100 µM | [11] > 100 µM | [12] > 100 µM | [14] > 100 µM | [15] > 100 µM

COC(=O)C1CC2c3c(c4ccccc4n3C)CC(C1=O)N2C (stereo not drawn)
inactive: [1] 78.9 µM | [2] 67.8 µM | [3] 31.5 µM | [4] 17.3 µM | [16] 37.8 µM | [6] 51.4 µM | [7] 43.5 µM | [17] 50.8 µM | [8] 68.9 µM | [9] 40.2 µM | [10] 42.1 µM | [18] 37.3 µM | [11] 47.5 µM | [12] 49.5 µM | [13] 28.2 µM | [14] 21.4 µM

COc1cc(C(=O)C(CO)Oc2ccccc2OC)ccc1O (stereo not drawn)
inactive: [2] > 100 µM | [3] 67 µM | [4] > 100 µM | [16] > 100 µM | [6] > 100 µM | [7] > 100 µM | [17] > 100 µM | [8] > 100 µM | [9] > 100 µM | [10] > 100 µM | [18] > 100 µM | [11] > 100 µM | [12] > 100 µM | [14] > 100 µM | [15] > 100 µM

CC(C)N1CN(C(C(=O)N[C@@H]2C(=O)N3C2SC(C)(C)C3C(=O)O)c2ccc(O)cc2)CSC1=S (stereo partly drawn)
inactive: [1] > 100 µM | [2] > 100 µM | [3] > 100 µM | [4] 33.8 µM | [16] > 100 µM | [6] > 100 µM | [7] > 100 µM | [17] > 100 µM | [8] > 100 µM | [9] > 100 µM | [10] > 100 µM | [18] > 100 µM | [11] > 100 µM | [12] > 100 µM | [13] > 100 µM | [14] > 100 µM | [15] > 100 µM

N#CCC(=O)N1CCCOCCC1
inactive: [1] 44.8 µM | [2] > 100 µM | [4] 21.8 µM | [16] > 100 µM | [5] > 100 µM | [6] > 100 µM | [7] > 100 µM | [17] > 100 µM | [8] > 100 µM | [9] > 100 µM | [10] 34.1 µM | [18] 38.6 µM | [11] > 100 µM | [12] > 100 µM | [13] > 100 µM | [14] > 100 µM | [15] > 100 µM

N=C1CSC2=NC3=C(CCC/C3=C\c3ccccc3)C(c3ccccc3)N12 (stereo not drawn)
inactive: [1] 2.26 µM | [2] 11.5 µM | [3] 10.6 µM | [4] 8.89 µM | [16] 3.7 µM | [5] 4.5 µM | [6] 15.1 µM | [7] 12.5 µM | [17] 3.93 µM | [8] 11.8 µM | [9] 5.28 µM | [10] 2.97 µM | [11] 5.65 µM | [12] 9.23 µM | [13] 13.9 µM | [14] 11.2 µM | [15] 11 µM

CC(C)OP(=O)(OC(C)C)/C(=N/Nc1ccc([N+](=O)[O-])cc1)Nc1ccccc1
inactive: [1] 33.7 µM | [2] 48.6 µM | [3] 36.6 µM | [4] 21.6 µM | [16] 20.8 µM | [7] 34.7 µM | [17] 26.2 µM | [8] 25 µM | [9] 12.4 µM | [18] 28.4 µM | [11] 24.1 µM | [12] 10.8 µM | [13] > 10 µM | [14] 77.3 µM | [15] 29.7 µM

CCC1C(C)c2c([nH]c3ccccc23)C2C(=O)N(c3ccccc3)C(=O)C21 (stereo not drawn)
inactive: [1] 15.7 µM | [2] 13.5 µM | [3] 11.4 µM | [4] 16.1 µM | [16] 15 µM | [5] 12.7 µM | [6] 19.4 µM | [17] 18.6 µM | [8] 20 µM | [9] 31.3 µM | [10] 12.5 µM | [18] 13.4 µM | [11] 16.9 µM | [12] 9.42 µM

O=S1(=O)OCCOS(=O)(=O)C1(Br)Cc1ccccc1
inactive: [1] > 100 µM | [2] > 100 µM | [3] 33 µM | [4] > 100 µM | [5] > 100 µM | [6] > 100 µM | [17] > 100 µM | [8] > 100 µM | [9] > 100 µM | [10] > 100 µM | [18] > 100 µM | [11] > 100 µM | [12] > 100 µM | [13] > 100 µM | [14] > 100 µM | [15] > 100 µM

COc1ccc(-c2cc(=O)c3cc(O)ccc3o2)c(OC)c1OC
inactive: [1] 21.7 µM | [2] 32.6 µM | [3] 23.1 µM | [4] 75.2 µM | [16] 28.2 µM | [5] 28.2 µM | [6] 35.3 µM | [7] 34.5 µM | [17] 36.8 µM | [8] 24.8 µM | [9] 39.4 µM | [10] 44.2 µM | [18] 27.2 µM | [11] 29 µM | [12] 28.7 µM | [15] 42.7 µM

C=C1C(=O)OC2C1CC[C@H](C)C13OC(=O)CC1[C@@]23C (stereo partly drawn)
inactive: [2] > 100 µM | [3] > 100 µM | [4] > 100 µM | [16] > 100 µM | [5] > 100 µM | [6] > 100 µM | [7] > 100 µM | [17] > 100 µM | [8] > 100 µM | [9] > 100 µM | [10] > 100 µM | [11] > 100 µM | [12] > 100 µM | [13] > 100 µM | [14] > 100 µM

C#Cc1c(C)c(/C=C/C(C)=C/C(=O)OC)n(C)c1C
inactive: [1] > 100 µM | [2] > 100 µM | [4] > 100 µM | [16] > 100 µM | [6] > 100 µM | [7] > 100 µM | [17] > 100 µM | [8] 79.3 µM | [9] > 100 µM | [10] 58.1 µM | [18] 82.2 µM | [11] > 100 µM | [12] 94.6 µM | [13] > 100 µM | [14] > 100 µM | [15] > 100 µM

O=C(CC(=O)N1N=C(n2ccc3ccccc32)CC1c1ccccc1)Nc1ccccc1Cl (stereo not drawn)
inactive: [1] > 100 µM | [2] > 100 µM | [3] > 100 µM | [4] > 100 µM | [16] > 100 µM | [5] > 100 µM | [6] > 100 µM | [17] > 100 µM | [8] > 100 µM | [9] > 100 µM | [10] > 100 µM | [18] > 100 µM | [11] > 100 µM | [12] > 100 µM | [13] > 100 µM | [14] > 100 µM | [15] > 100 µM

COc1cc(C2C(Cl)C(=O)N2NC(=O)c2ccc(NC(C)=O)cc2)ccc1O (stereo not drawn)
inactive: [1] > 100 µM | [2] > 100 µM | [4] > 100 µM | [5] > 100 µM | [6] > 100 µM | [7] > 100 µM | [17] > 100 µM | [8] > 100 µM | [9] > 100 µM | [10] > 100 µM | [18] > 100 µM | [11] > 100 µM | [12] > 100 µM | [13] > 100 µM | [14] > 100 µM | [15] > 100 µM

CC(C)c1cc(C(C)C)c(S(=O)(=O)N=[N+]=[N-])c(C(C)C)c1
inactive: [1] 47 µM | [2] > 100 µM | [3] 23 µM | [4] > 100 µM | [16] > 100 µM | [5] 68.4 µM | [6] > 100 µM | [7] > 100 µM | [17] > 100 µM | [8] 67.3 µM | [9] > 100 µM | [10] 46.6 µM | [18] 81.8 µM | [11] > 100 µM | [12] > 100 µM | [14] > 100 µM | [15] > 100 µM
